Where a name gives a salt, the structure may show the parent alone. Read-outs that look alike come from different tables or passages of the source.
Legend:
[1] = 14C-mannitol permeability (monolayer integrity) in MDCKII wild-type cells; assay type: in vitro ADME, Canine; details: dog, MDCK, read-out: apparent permeability (Papp)
Method: (§1) The human intestinal epithelial cell line, LS-180 was purchased from American Type Culture Collection (ATCC) (Manassas, VA, USA) and grown in Minimum Essential Medium supplemented with 10% FBS. The Caco-2 cells were obtained from ATCC. MDCKII-MDR1 and MDCKII wild-type cell lines were a generous gift from Dr. Piet Borst (The Netherlands Cancer Research Institute). Both Caro-2 and MDCKII cells were grown in DMEM, 10% FBS, 0.1 mM non-essential amino acids, and 0.01% penicillin/streptomycin [38, 39]. […] For the transport experiments, cells were seeded, 3.0 × 10^5cells/well, onto 6-well Transwell® inserts 4.71 cm^2 (Corning Costar, Cambridge, MA, USA) and maintained until use on Days 21–25 (Caco-2, passages 23–30) and Days 6–7 (MDCKII-MDR1 and MDCKII wild-type). The integrity of the monolayers was assessed by measuring transepithelial electrical resistance (TEER) using a World Precision Instrument, EVOM (Sarasota, FL, USA) and evaluating ^14C-mannitol transport. […] For the real time RT-PCR, cells were seeded at 6 × 10^5 cells/well (Caco-2) and 1 × 10^6 cells/well (LS-180) onto 6-well Transwell® inserts 4.71 cm^2 and grown for 7 (Caco-2) and 6 (LS-180) days.

[2] = 14C-mannitol permeability (monolayer integrity) in MDCKII-MDR1 cells; assay type: in vitro ADME, Canine; details: dog, MDCK-MDR1, read-out: apparent permeability (Papp)
Method: as §1

[3] = 14C-mannitol permeability (monolayer integrity) in Caco-2 cells; assay type: in vitro ADME, human; details: human, Caco-2 cells, read-out: apparent permeability (Papp)
Method: as §1

[4] = test system: Caco-2 cells; test: as above; assay type: in vitro ADME, human; details: various treatment conditions, throughout the entire experiment
Method: as §1

[5] = test system: MDCKII-MDR1 cells; test: MTT cytotoxicity assay in MDCKII-MDR1 cells; assay type: cell-based, Canine; details: 4 hours exposure
Text: (§2) We initiated cytotoxicity experiments with the Caco-2, MDCKII-MDR1 and MDCKII-wild type cells on Day 7 (Caco-2) and Day 4 (MDCKII-MDR1 and MDCKII-wild type) after the initial plating of the cells at 2.5 × 10^3 cells/well in 48-well plates (Becton Dickinson, Franklin Lakes, NJ, USA). See details of preparation for the cytotoxicity experiments in Supplementary Material.
(§3) We initiated cytotoxicity experiments with the Caco-2, MDCKII-MDR1 and MDCKII-wild type cells on Day 7 (Caco-2) and Day 4 (MDCKII-MDR1 and MDCKII-wild type) after the initial plating of the cells at 2.5x10^3 cells/well in 48-well plates (Becton Dickinson, Franklin Lakes, NJ, USA). Stock solutions of 10 mM berberine or berbamine were prepared by dissolving the compounds in DMSO (berberine) or distilled water (berbamine). […] The final concentration of DMSO was 0.003% (v/v), 0.03% (v/v), 0.3% (v/v), 1% (v/v), 1.5% (v/v), and 3% (v/v) DMSO/culture medium for 0.3 μM, 3 μM, 30 μM, 100 μM, ,150 μM, and 300 μM, respectively. The final concentration of ethanol was 0.15% (v/v) ethanol/culture medium. Ketoconazole (75 µM) was used as a positive control and no treatment (medium alone) was used as a negative control for each experiment.
(§4) The LDH enzymatic activities were assayed using the method of Mitchell et al.(1). […] Enzyme leakage into the medium was expressed as the percentage of total cellular LDH. The MTT (3-(4,5-dimethythiazole-2yl)-2,5-diphenyl tetrazolium bromide) reduction assay was done according to Mosmann (2). This assay was conducted immediately with the same cells used in the LDH study. The results were expressed as the percentage of negative controls.

[6] = test system: MDCKII wild-type cells; test: MTT cytotoxicity assay in MDCKII wild-type cells; assay type: cell-based, Canine; details: MDCKII-WT cells, 4 hours exposure
Text: as §2, §3, §4

[7] = test system: Caco-2 cells; test: LDH leakage cytotoxicity assay in Caco-2 cells; assay type: cell-based, human; details: 300 µM, 4 hours exposure
Text: as §2
(§5) We initiated cytotoxicity experiments with the Caco-2, MDCKII-MDR1 and MDCKII-wild type cells on Day 7 (Caco-2) and Day 4 (MDCKII-MDR1 and MDCKII-wild type) after the initial plating of the cells at 2.5x10^3 cells/well in 48-well plates (Becton Dickinson, Franklin Lakes, NJ, USA). Stock solutions of 10 mM berberine or berbamine were prepared by dissolving the compounds in DMSO (berberine) or distilled water (berbamine).
as §4

[8] = target: T1, P-glycoprotein (MDR1) (Homo sapiens, UniProt P08183); test: Transepithelial transport of berberine and berbamine across MDCKII-MDR1 cells; assay type: in vitro ADME; details: dog, MDCK-MDR1
T1 construct: expressed in transfected cells; host or cells: MDCKII-MDR1 (Madin-Darby canine kidney II cells overexpressing MDR1)
T1 sequence (P08183 whole entry): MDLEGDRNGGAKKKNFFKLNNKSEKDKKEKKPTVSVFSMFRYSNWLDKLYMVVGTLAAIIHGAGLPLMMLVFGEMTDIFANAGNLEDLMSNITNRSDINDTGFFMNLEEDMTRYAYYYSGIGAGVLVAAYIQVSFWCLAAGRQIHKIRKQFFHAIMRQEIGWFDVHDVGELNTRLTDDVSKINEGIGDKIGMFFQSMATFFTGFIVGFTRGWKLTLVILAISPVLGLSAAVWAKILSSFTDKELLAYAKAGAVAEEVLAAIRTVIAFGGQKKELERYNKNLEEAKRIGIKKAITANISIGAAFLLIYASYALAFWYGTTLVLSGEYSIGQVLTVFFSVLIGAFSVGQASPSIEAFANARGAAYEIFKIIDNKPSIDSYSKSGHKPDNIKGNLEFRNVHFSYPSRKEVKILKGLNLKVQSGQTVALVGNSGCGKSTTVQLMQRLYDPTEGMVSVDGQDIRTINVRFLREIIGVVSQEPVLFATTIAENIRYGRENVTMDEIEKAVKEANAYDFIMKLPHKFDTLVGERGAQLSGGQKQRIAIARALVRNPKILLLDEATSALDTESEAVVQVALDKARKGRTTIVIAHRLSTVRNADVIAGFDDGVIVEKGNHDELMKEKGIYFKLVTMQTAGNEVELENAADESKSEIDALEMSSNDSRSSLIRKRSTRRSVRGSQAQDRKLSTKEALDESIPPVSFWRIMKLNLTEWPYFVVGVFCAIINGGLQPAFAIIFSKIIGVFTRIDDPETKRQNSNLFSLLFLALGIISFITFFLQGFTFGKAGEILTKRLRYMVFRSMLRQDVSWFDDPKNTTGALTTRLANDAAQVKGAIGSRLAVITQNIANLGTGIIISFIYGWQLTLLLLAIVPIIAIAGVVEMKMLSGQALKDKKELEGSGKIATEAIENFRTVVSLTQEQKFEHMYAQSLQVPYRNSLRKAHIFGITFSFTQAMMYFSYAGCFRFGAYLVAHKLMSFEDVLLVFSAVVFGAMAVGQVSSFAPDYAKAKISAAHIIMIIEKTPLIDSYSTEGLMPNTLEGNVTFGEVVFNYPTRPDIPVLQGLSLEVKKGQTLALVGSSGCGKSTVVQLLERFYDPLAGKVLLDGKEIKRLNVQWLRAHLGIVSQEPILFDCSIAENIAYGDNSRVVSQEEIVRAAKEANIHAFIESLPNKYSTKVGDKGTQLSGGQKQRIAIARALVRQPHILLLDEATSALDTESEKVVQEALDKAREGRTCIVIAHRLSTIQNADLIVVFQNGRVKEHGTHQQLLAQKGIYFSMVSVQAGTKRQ
Method: Transport of ^3H-CsA and ^3H-digoxin (0.5 µM and 1.0 µCi), MDR1 substrates, were performed using transport buffer consisting of HBSS with 10 mM HEPES and 25 mM D-glucose at a pH of 6.8 for the apical (A) compartment and 7.4 for the basolateral (B) compartment. Experiments were performed at 37°C, 5% CO2, and 95% relative humidity. Cells in the Transwell® inserts were washed 3 times with a transport buffer and allowed to equilibrate for 30 min prior to the addition of test compounds. […] To evaluate the efflux mechanism involved with berberine and berbamine, 100 µM of berberine and berbamine were placed in the donor chamber and 100 µL samples were collected in the receiver chamber at 0, 0.5, 1.0, 1.5, 2.0, 2.5, and 3.0 h and analyzed by HPLC. Each experiment was performed in duplicate and repeated for each condition tested. […] A 100 µL sample was taken from the donor chamber at 3 h in order to calculate the mass balance of radioactivity to determine if adsorption to the cell culture transport apparatus had occurred. Each sample was placed in 0.9 mL of scintillation fluor (Cytoscint ES, ICN, Cosa Mesa, CA, USA) and read on a Beckman LS 6500 (Palo Alto, CA, USA) scintillation counter for ^3H activity. […]
The apparent permeability (Papp) was calculated using the following equation [40]: Papp=dQ/dt×1/A×C0 […]

[9] = Transepithelial transport of berberine and berbamine across Caco-2 cells; assay type: in vitro ADME, human; details: human
Method: (§6) Transport of ^3H-CsA and ^3H-digoxin (0.5 µM and 1.0 µCi), MDR1 substrates, were performed using transport buffer consisting of HBSS with 10 mM HEPES and 25 mM D-glucose at a pH of 6.8 for the apical (A) compartment and 7.4 for the basolateral (B) compartment. Experiments were performed at 37°C, 5% CO2, and 95% relative humidity. Cells in the Transwell® inserts were washed 3 times with a transport buffer and allowed to equilibrate for 30 min prior to the addition of test compounds. […] To evaluate the efflux mechanism involved with berberine and berbamine, 100 µM of berberine and berbamine were placed in the donor chamber and 100 µL samples were collected in the receiver chamber at 0, 0.5, 1.0, 1.5, 2.0, 2.5, and 3.0 h and analyzed by HPLC. Each experiment was performed in duplicate and repeated for each condition tested. For experiments performed in “non-sink” conditions, 100 µL aliquots were taken from the donor and receiver chambers at the beginning and from the receiver chamber at 0.5, 1.0, 1.5, 2.0, 2.5, and 3.0 h. An equal volume of 100 µL was replaced in the chamber at each sample time point. “Non-sink” conditions were performed when less than 10% of compound is transported across cells during the transport experiment such that a concentration gradient was always present. For the “sink” condition experiments, the entire receiver volume was replaced at each time interval and a 100 µL aliquot was taken from the receiver volume for scintillation counting. A 100 µL sample was taken from the donor chamber at 3 h in order to calculate the mass balance of radioactivity to determine if adsorption to the cell culture transport apparatus had occurred. Each sample was placed in 0.9 mL of scintillation fluor (Cytoscint ES, ICN, Cosa Mesa, CA, USA) and read on a Beckman LS 6500 (Palo Alto, CA, USA) scintillation counter for ^3H activity. For berberine and berbamine analysis, 100 µL aliquot was assayed by HPLC.
(§7) The apparent permeability (Papp) was calculated using the following equation [40]: Papp=dQ/dt×1/A×C0
(§8) Where A is the surface area of the monolayer (4.71 cm^2) and C0 is the initial concentration of radiolabeled probe substrate in the donor compartment. dQ/dt is the slope of the steady-state rate constant. The efflux ratio was determined by dividing the Papp in the B to A direction by the Papp in the A to B direction: Efflux ratio=PappB to A/PappA to B
(§9) A Waters 2690 separations module with a Model 996 photodiode array detector with the Millennium 32 Chromatograph Manager version 3.0 software (Waters Corporation, Milford, MA, USA) was used for HPLC analysis. […] All the standards and samples were filtered (0.2 µm) prior to injection. Ten µL was injected onto a 250 × 4.6 mm i.d., […], Zorbax Eclipse X DB-C18 Column (Agilent Technologies, Palo Alto, CA, USA) with a 3.9 × 20 mm i.d. Symmetry® C18 guard column, with an isocratic mobile phase of 32:68 acetonitrile:buffer. The buffer consisted of 30 mM ammonium acetate and 14 mM TEA and was adjusted to pH 4.85 with acetic acid. A flow rate of 1 mL/min and UV absorption at 254 nm was used for analysis. The retention time of berberine and berbamine was 7.84 min and 3.03 min, respectively. The cumulative amount of transport was determined using the corresponding peak area for berberine or berbamine. The cumulative amount of berberine or berbamine transported across the cell membrane was evaluated as a functionof time. The Papp was calculated by the following equation: […]

[10] = test system: Caco-2 cells; test: as above; assay type: in vitro ADME, human
Method: as §6, §7, §8, §9

[11] = target: P-glycoprotein (Homo sapiens, UniProt P08183); test: Effect on 3H-CsA and 3H-digoxin transport in Caco-2 cells; details: Caco-2 cells
Sequence of P-glycoprotein (P08183 whole entry): as above

[12] = test system: Caco-2 cells; test: MTT cytotoxicity assay in Caco-2 cells; assay type: cell-based, human; details: for MTT assay: 4 hours exposure
Text: as §2, §5, §4

[13] = test system: human MDR1 mRNA; test: Real time RT-PCR of MDR1 mRNA in Caco-2 cells; assay type: cell-based; details: 100 µM, positive control
[14] = test system: P-gp; design: method as in PMID 12434406; details: Caco-2 cells; inhibitor 1 mM; cited from earlier work

Compound `OC[C@@H](O)[C@@H](O)[C@H](O)[C@H](O)CO` [mannitol] has a Papp [1] of 2.16 ± 0.72 ×10⁻⁶ cm/s, a Papp [2] of 2.38 ± 0.13 ×10⁻⁶ cm/s and a Papp [3] of 2.09 ± 0.4 ×10⁻⁶ cm/s. For the same compound, the transport rate [4] was “less than 1 % per hour”.

In the case of `COc1cc2c3cc1Oc1c(OC)c(OC)cc4c1[C@@H](Cc1ccc(O)c(c1)Oc1ccc(cc1)C[C@@H]3N(C)CC2)N(C)CC4` [Berbamine, berbamine dihydrochloride], the MTT assay ([5]; 0.03 µM) is reported as “□ (%MTT reduction is not significantly decreased compared with the negative control)”, the MTT assay ([5]; 0.3 µM) is reported as “□ (%MTT reduction is not significantly decreased compared with the negative control)” and the MTT assay ([5]; 30 µM) is reported as “□ (%MTT reduction is not significantly decreased compared with the negative control)”. The MTT assay ([5]; 100 µM) was “□ (%MTT reduction is not significantly decreased compared with the negative control)”, the MTT assay ([5]; 150 µM) was “□ (%MTT reduction is not significantly decreased compared with the negative control)” and the MTT assay ([5]; 300 µM) was “□ (%MTT reduction is not significantly decreased compared with the negative control)”. The MTT assay ([6]; 0.03 µM) was “□ (%MTT reduction is not significantly decreased compared with the negative control)”, the MTT assay ([6]; 0.3 µM) was “□ (%MTT reduction is not significantly decreased compared with the negative control)” and the MTT assay ([6]; 30 µM) was “□ (%MTT reduction is not significantly decreased compared with the negative control)”. For the same compound, the MTT assay ([6]; 100 µM) was “□ (%MTT reduction is not significantly decreased compared with the negative control)”, the MTT assay ([6]; 150 µM) was “□ (%MTT reduction is not significantly decreased compared with the negative control)” and the MTT assay ([6]; 300 µM) was 64.32 ± 13.1%. It also gave an LDH assay [7] of 43.88 ± 7.44%, an efflux ratio at 3 h, 100 µM [8] of 27.4 ± 5.1 and an efflux ratio at 3 h, 100 µM ([9]; Caco-2, 100 µM, Caco-2 cells, read-out: fold increase of Papp B to A compared with A to B) of about 30. The efflux ratio at 3 h, 100 µM ([9]; Caco-2, Caco-2 cells, read-out: efflux ratio) was 24.2 ± 4.5, the Papp A→B at 3 h, 100 µM ([9]; 100 µM, Caco-2 cells, read-out: Papp A to B direction) was 2.49 ×10⁻⁶ cm/s and the Papp B→A at 3 h, 100 µM ([9]; 100 µM, Caco-2 cells, read-out: Papp B to A direction) was 60.3 ×10⁻⁶ cm/s. For the same compound, the “transport in the A to B direction” value ([10]; 100 µM, Caco-2 cells) was 0.39 nmol/min, the “transport in the B to A direction” value ([10]; 100 µM, Caco-2 cells) was 5.94 nmol/min and the “extent of efflux relative to berberine” value ([10]; Caco-2 and MDCKII-MDR1 cells) was about 5 fold. The “lowest concentration with significant decrease of B to A transport of 0.5 µM 3H-CsA” value [11] was 30 µM, the MTT assay ([12]; 0.03 µM) was “□ (%MTT reduction is not significantly decreased compared with the negative control)” and the MTT assay ([12]; 0.3 µM) was “□ (%MTT reduction is not significantly decreased compared with the negative control)”. For the same compound, the MTT assay ([12]; 30 µM) was “□ (%MTT reduction is not significantly decreased compared with the negative control)”, the MTT assay ([12]; 100 µM) was “□ (%MTT reduction is not significantly decreased compared with the negative control)” and the MTT assay ([12]; 150 µM) was “□ (%MTT reduction is not significantly decreased compared with the negative control)”. For the same compound, the MTT assay ([12]; 300 µM) was 64.99 ± 11.46% and the “earliest time of significant increase in LDH leakage and decrease in MTT reduction” value ([12]; 300 µM, time-response 2, 4, 6, 8 hr, data not shown) was 2 h.

For `N[C@@H](Cc1cc(I)c(Oc2cc(I)c(O)c(I)c2)c(I)c1)C(=O)O` [levothyroxine], the “P-gp (MDR1) mRNA” value [13] was “significantly increase”.

For `COC(=O)c1ccccc1-c1c2ccc(=N)cc-2oc2cc(N)ccc12` [rhodamine123], the “inhibition of the efflux of 20 µM berberine” value [14] is given as 100%.

For `COc1cccc2c1C(=O)c1c(O)c3c(c(O)c1C2=O)C[C@@](O)(C(C)=O)C[C@@H]3O[C@H]1C[C@H](N)[C@H](O)[C@H](C)O1` [daunomycin], the “inhibition of the efflux of 20 µM berberine” value [14] is given as 100%.

From PMC10830684, “Effect of Oregon grape root extracts on P-glycoprotein mediated transport in in vitro cell lines” (Journal of Pharmacy & Pharmaceutical Sciences, 2024)
